Reference: patent publication US20260365696A1, “INHIBITORS OF PTP1B / NCK1 INTERACTION AND METHODS OF MAKING AND USING SAME” (Radella Pharmaceuticals LLC, priority 2023, published 2026)
Blank lines part the entries; values can stand above or below the substance they belong to.

Target: T1, SH3-2 domain of NCK1 (Homo sapiens, UniProt P16333)
T1 construct: To amplify the NCK1 SH3-2 domain, the primers; 10xHis tag with TEV site (vector pSF-OXB20-NH2-10HIS) (N, cleaved yes); made in house; host or cells: E. coli C43(DE3)
Assay: Isothermal titration calorimetry (ITC) binding to NCK1 SH3-2 domain
Conditions: ITC; for Kd: 25 °C, pH 8.0
Excerpt: Human PTP1B cDNA (NM_002827) and human NCK1 cDNA (NM 006153) were obtained (Origene, MD, USA). PTP1B Primers were designed to amplify the ORFs with added homology to the cut vector (EcoRI-digested pSF-OXB20-NH2-10HIS) in the forward primer sequence. To amplify full-length PTP1B, the primers ptp1b_FL_fwd ([…]) (SEQ ID NO: 159) and ptp1b_FL_rev ([…]) (SEQ ID NO: 160) were used. To amplify truncations of PTP1B, the following primer pairs were used: ptp1b_FL-Fwd and one of Ptplb_323stop_rev (gtgcaggaggagttcgaatt[…]) (SEQ ID NO: 161), ptp1b_344stop_rev ([…]) (SEQ ID NO: 162) or ptp1b_278stop_rev([…]) (SEQ ID NO: 163). To amplify the NCK1 SH3-2 domain, the primers ncklsh32_fwd ([…]) (SEQ ID NO: 164) and ncklsh32_rev ([…]) (SEQ ID NO: 165) were used. The amplified fragments were purified using a DNA clean-up kit according to manufacturer's instructions (QIAquick PCR purification kit, Qiagen).
To produce and purify fusion proteins, a culture was inoculated with 1% of overnight-cultured inoculum. Protein expression was carried out under the conditions described above, scaled up as necessary. Cells expressing the recombinant proteins were harvested in 50 mL tubes by centrifugation and stored at −80 °C. Cells containing the expressed gene product were thawed over ice and resuspended in Extraction buffer (10 mM Tris, pH 7.4 or 10 mM Sodium Phosphate, pH 8.0; 300 mM NaCl, 1 mM DTT or TCEP; 0-10% glycerol and 1 μg lysozyme) and sonicated over ice (4 °C) for 3 min total using pulses of 5 s with 15 s intervals, using a wide probe at 15 amplitude microns (Soniprep 150, MSE). Insoluble material was removed from the lysate by centrifugation at 20K rpm for 20-60 min at 4 °C. Supernatant was filtered through a 0.22 μm PVDF filter membrane and applied to 1-2 5 mL HisTrap FF Crude (Cytiva) prepacked Ni columns and connected to an AKTA explorer. After thorough washing with binding buffer (10 mM Tris, pH 7.4 or 10 mM Sodium Phosphate, pH 8.0; 300 mM NaCl; 1 mM DTT or TCEP and 25 mM Imidazole), protein was eluted using elution buffer (10 mM Tris, pH 7.4 or 10 mM Sodium Phosphate, pH 8.0; 150-300 mM NaCl; 1 mM DTT or TCEP and 250 mM Imidazole). Fractions containing protein of interest were confirmed by SDS PAGE. Protein was diluted with GF buffer (10 mM Tris, pH 7.4 or 10 mM Sodium Phosphate, pH 8.0; 150-300 mM NaCl) and subjected to TEV protease treatment overnight at 4-10 °C. Following proteolytic digestion, HIS-tag and TEV protease were removed by filtration through a clean 5 mL HisTrap FF Crude (Cytiva) prepacked Ni column. Protein was concentrated on a PES ultrafiltration device by centrifugation at 4000 rpm at 4 °C, and protein was polished via a HiPrep S-100 26/60 (Cytiva) using GF buffer (as described above). Purified proteins were concentrated using ultrafiltration, and protein concentration was determined using ultraviolet-visible spectroscopy. The integrity and identity of all proteins were verified by mass spectrographic analysis.
Isothermal titration calorimetry (ITC) was used to determine binding affinities for peptides against the SH3-2 domain of NCK1. Experiments were conducted at 25 °C using either a MicroCal iTC200 or MicroCal PEAQ-ITC calorimeter. The buffer used for all ITC experiments was 10 mM sodium [COMPOUND LEFT OUT] mM sodium chloride (pH=8.0). A series of peptides (concentration 3-7.5 mM) were titrated in to NCK1 SH3-2 domain (concentration 0.125-0.3 mM) using the following conditions: one injection of 0.2 μL followed by 19 injections of 2 μL, 120-150 seconds spacing between injections, at 25 °C. The data were fit using analysis software provided by the manufacturer and affinity values were calculated. The best fitting occurred when the number of sites was between 0.8 and 1.2. The experiments were repeated twice for a total of three times, and the average binding affinity for each peptide was generated. […]

[1] = Sliding window peptide analysis
[2] = substitutions at position 4 of MD18 in a 7-mer
[3] = substitutions at position 6 of MD18
[4] = substitutions at position 8 of the 8-mer MH063, certain peptides tested one to three times
[5] = N- or C-terminal extensions, 30-mers tested one to three times

Kd (Peptide truncation analysis): ≤ 300 µM
Substance: Ac-PPPPRPPKR-NH2 [MH025]

Kd [1]: > 1000 µM
Substance: Ac-PPPRPP-NH2 [MH036, Ac-PPPRPP-NH2]

binding to NCK1 SH3-2 domain (in words): abolished binding
Kd [1]: > 1000 µM
Substance: Ac-PPPRPPK-NH2 [MH041, Ac-PPPRPPK-NH2]

Kd (Peptide truncation analysis): ≤ 300 µM
Substance: Ac-PPPRPPKR-NH2 [MH024]

Kd (substitutions at position 3 of MD18): ≤ 300 µM
Substance: Ac-PPQPPKR-NH2 [MH087, Ac-PPQPPKR-NH2]

Kd [2]: > 1000 µM
Substance: Ac-PPRCPKR-NH2 [MH129, Ac-PPRCPKR-NH2]

Kd [2]: > 1000 µM
Substance: Ac-PPRDPKR-NH2 [MH128, Ac-PPRDPKR-NH2]

Kd [2]: > 1000 µM
Substance: Ac-PPREPKR-NH2 [MH130, Ac-PPREPKR-NH2]

Kd [2]: 600 to 1000 µM
Substance: Ac-PPRFPKR-NH2 [MH067, Ac-PPRFPKR-NH2]

Kd [2]: > 1000 µM
Substance: Ac-PPRGPKR-NH2 [MH093, Ac-PPRGPKR-NH2]

Kd [2]: > 1000 µM
Substance: Ac-PPRHPKR-NH2 [MH132, Ac-PPRHPKR-NH2]

Kd [2]: ≤ 300 µM
Substance: Ac-PPRIPKR-NH2 [MH097, Ac-PPRIPKR-NH2]

Kd [2]: 300 to 600 µM
Substance: Ac-PPRKPKR-NH2 [MH104, Ac-PPRKPKR-NH2]

Kd [2]: 300 to 600 µM
Substance: Ac-PPRLPKR-NH2 [MH101, Ac-PPRLPKR-NH2]

Kd [2]: > 1000 µM
Substance: Ac-PPRMPKR-NH2 [MH111, Ac-PPRMPKR-NH2]

Kd [2]: > 1000 µM
Substance: Ac-PPRNPKR-NH2 [MH127, Ac-PPRNPKR-NH2]

Kd [3]: ≤ 300 µM
Substance: Ac-PPRPPCR-NH2 [MH054, Ac-PPRPPCR-NH2]

Kd [3]: 300 to 600 µM
Substance: Ac-PPRPPDR-NH2 [MH085, Ac-PPRPPDR-NH2]

Kd [3]: ≤ 300 µM
Substance: Ac-PPRPPER-NH2 [MH051, Ac-PPRPPER-NH2]

Kd [3]: 300 to 600 µM
Substance: Ac-PPRPPFR-NH2 [MH105, Ac-PPRPPFR-NH2]

Kd [3]: 600 to 1000 µM
Substance: Ac-PPRPPGR-NH2 [MH094, Ac-PPRPPGR-NH2]

Kd [3]: ≤ 300 µM
Substance: Ac-PPRPPHR-NH2 [MH049, Ac-PPRPPHR-NH2]

Kd [3]: ≤ 300 µM
Substance: Ac-PPRPPIR-NH2 [MH098, Ac-PPRPPIR-NH2]

binding to NCK1 SH3-2 domain (in words): abolished binding
Kd [1]: > 1000 µM
Substance: Ac-PPRPPK-NH2 [MH035, Ac-PPRPPK-NH2]

Kd (Modified MD18/MD20 peptides): > 1000 µM
Substance: Ac-PPRPPKK-NH2 [MH076, Ac-PPRPPKK-NH2]

Kd [4]: ≤ 300 µM
Substance: Ac-PPRPPKRA-NH2 [MH138]

Kd [4]: ≤ 300 µM
Substance: Ac-PPRPPKRC-NH2 [MH142]

Kd [4]: ≤ 300 µM
Substance: Ac-PPRPPKRD-NH2 [MH141]

Kd [4]: ≤ 300 µM
Substance: Ac-PPRPPKRF-NH2 [MH150]

Kd [4]: ≤ 300 µM
Substance: Ac-PPRPPKRG-NH2 [MH145]

Kd [4]: ≤ 300 µM
Substance: Ac-PPRPPKRH-NH2 [MH146]

Kd [5]: ≤ 300 µM
Kd [4]: ≤ 300 µM
Substance: Ac-PPRPPKRI-NH2 [MH063]

Kd [5]: ≤ 300 µM
Substance: Ac-PPRPPKRIL-NH2 [MH064]

Kd [5]: ≤ 300 µM
Substance: Ac-PPRPPKRILE-NH2 [MH065]

Kd [4]: ≤ 300 µM
Substance: Ac-PPRPPKRK-NH2 [MH148]

Kd [4]: ≤ 300 µM
Substance: Ac-PPRPPKRL-NH2 [MH147]

Kd [4]: ≤ 300 µM
Substance: Ac-PPRPPKRM-NH2 [MH149]

Kd [4]: ≤ 300 µM
Substance: Ac-PPRPPKRN-NH2 [MH140]

Kd [4]: 300 to 600 µM
Substance: Ac-PPRPPKRP-NH2 [MH151]

Kd [4]: ≤ 300 µM
Substance: Ac-PPRPPKRR-NH2 [MH139]

Kd [4]: ≤ 300 µM
Substance: Ac-PPRPPKRS-NH2 [MH152]

Kd [4]: ≤ 300 µM
Substance: Ac-PPRPPKRW-NH2 [MH154]
